Marks after values point to notes of the source that are not given here.
What was measured:
[1] = Dynamic light scattering: LNP particle size and PDI; type: physicochemical; conditions: for PDI N/P:6 / Size (nm) N/P:6: LNP
Procedure, shortened: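 The LNPs were made by microfluidic mixing of the lipids in ethanol with mRNA in pH 4.0 citrate, then dialyzed into PBS pH 7.4. They were diluted in PBS pH 7.4, and particle size and PDI were measured by dynamic light scattering.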

[2] = system: mouse organs; assay: In vivo activity screening in mice: organ mean total flux (p/s) of luciferase activity after injection of F2 LNP pools (Table 6, FIG. 7A-7C); conditions: luciferase mRNA
Procedure, shortened: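 Luciferase output per organ is reported as mean total flux (p/s) from IVIS regions of interest. Organs were collected from perfused C57BL/6J mice and imaged 10-15 min after s.c. D-luciferin, 4-6 h after i.v. dosing. Dosing was 0.25-3 mg/kg luciferase mRNA in F2 LNP pools.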

[3] = Plate-based fluorescence (RiboGreen) assay: nucleic acid cargo content and encapsulation efficiency of LNPs; type: physicochemical; conditions: for EE (%) N/P:6: LNP
Procedure, shortened: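 LNPs made by microfluidic mixing of ethanolic lipids with mRNA in pH 4.0 citrate, dialyzed into PBS pH 7.4. Cargo quantified by RiboGreen fluorescence against a standard curve: Triton-lysed samples give total, TE-only samples give free cargo; encapsulation efficiency from their ratio.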

[4] = LNP compositions for in vivo mouse study, four formulations (F1-F4) of the lipid compound pooled, or pools of four compounds (sixteen compositions)
[5] = LNP compositions for in vivo mouse study, four formulations (F1-F4) pooled, or pools of four compounds
[6] = LNP compositions for Formulation F2 Study

SMILES	Particle Size (nm) [1, 4] [nm]	PDI [1, 5]	PDI N/P:6 ([1]; Formulation F1, N/P 6)	Size (nm) N/P:6 ([1]; Formulation F1, N/P 6) [nm]	PDI N/P:6 ([1]; Formulation F2, N/P 6)	Size (nm) N/P:6 ([1]; Formulation F2, N/P 6) [nm]	PDI N/P:6 ([1]; Formulation F3, N/P 6)	Size (nm) N/P:6 ([1]; Formulation F3, N/P 6) [nm]	PDI N/P:6 ([1]; Formulation F4, N/P 6)	Size (nm) N/P:6 ([1]; Formulation F4, N/P 6) [nm]	Organ Mean Total Flux Femur ([2]; Mouse 1, dose 0.3 mg/kg)	Organ Mean Total Flux Heart ([2]; Mouse 1, dose 0.3 mg/kg)	Organ Mean Total Flux Kidney ([2]; Mouse 1, dose 0.3 mg/kg)	Organ Mean Total Flux Liver ([2]; Mouse 1, dose 0.3 mg/kg)	Organ Mean Total Flux Lung ([2]; Mouse 1, dose 0.3 mg/kg)	Organ Mean Total Flux Muscle ([2]; Mouse 1, dose 0.3 mg/kg)	Organ Mean Total Flux Pancreas ([2]; Mouse 1, dose 0.3 mg/kg)	Organ Mean Total Flux Spleen ([2]; Mouse 1, dose 0.3 mg/kg)	EE % [3, 5] [%]	mRNA Content [3, 5] [µg/mL]	other results
CCCCC/C=C\CCOC(=O)CCCCCCC(=O)OCC(COC(=O)CCCCCCC(=O)OCC/C=C\CCCCC)(COC(=O)CCC(CCCCCC)OC(=O)NCCN1CCCC1)COC(=O)CC12CC3CC(CC(C3)C1)C2 (centres unmarked) [Compound 11, O8-[2-[[2-(1-adamantyl)acetyl]oxymethyl]-2-[[8-[(Z)-non-3-enoxy]-8-oxo-octanoyl]oxymethyl]-3-[4-(2-pyrrolidin-1-ylethylcarbamoyloxy)decanoyloxy]propyl]O1-[(Z)-non-3-enyl]octanedioate]	86	0.13	0.16	77 ± 7	0.11	88 ± 3	0.14	91 ± 1	0.30	74 ± 2	5.3 p/s (×10^6)	2.3 p/s (×10^6)	2.4 p/s (×10^6)	5140 p/s (×10^6)	27.7 p/s (×10^6)	21.8 p/s (×10^6)	6.0 p/s (×10^6)	32.3 p/s (×10^6)	97	105	EE (%) N/P:6 ([3]; Formulation F1, N/P 6): 100%; EE (%) N/P:6 ([3]; Formulation F2, N/P 6): 100%; EE (%) N/P:6 ([3]; Formulation F3, N/P 6): 97%; EE (%) N/P:6 ([3]; Formulation F4, N/P 6): 99%
CCCCC/C=C\CCOC(=O)CCCCCC(=O)OCC(COC(=O)CCCCCC(=O)OCC/C=C\CCCCC)(COC(=O)CCCCCC(=O)OCC/C=C\CCCCC)COC(=O)CCC(CCCCCC)OC(=O)NCCN1CCCC1 (centres unmarked) [Compound 7, O7-[2,2-bis[[7-[(Z)-non-3-enoxy]-7-oxo-heptanoyl]oxymethyl]-3-[4-(2-pyrrolidin-1-ylethylcarbamoyloxy)decanoyloxy]propyl]O1-[(Z)-non-3-enyl]heptanedioate]	89.3	0.14	0.08	75 ± 1	0.11	97 ± 5	0.09	99 ± 2	0.21	75 ± 3	2.4 p/s (×10^6)	0.2 p/s (×10^6)	0.7 p/s (×10^6)	140.0 p/s (×10^6)	4.9 p/s (×10^6)	2.5 p/s (×10^6)	1.8 p/s (×10^6)	29.0 p/s (×10^6)	96	84	PDI [1, 6]: 0.086; Particle Size (nm) [1, 6]: 120.8 nm; Organ Mean Total Flux Femur ([2]; Mouse 14, dose 0.5 mg/kg): 5.7 p/s (×10^6); Organ Mean Total Flux Heart ([2]; Mouse 14, dose 0.5 mg/kg): 0.9 p/s (×10^6); Organ Mean Total Flux Kidney ([2]; Mouse 14, dose 0.5 mg/kg): 3.2 p/s (×10^6); Organ Mean Total Flux Liver ([2]; Mouse 14, dose 0.5 mg/kg): 338.0 p/s (×10^6); Organ Mean Total Flux Lung ([2]; Mouse 14, dose 0.5 mg/kg): 14.5 p/s (×10^6); Organ Mean Total Flux Muscle ([2]; Mouse 14, dose 0.5 mg/kg): 48.2 p/s (×10^6); Organ Mean Total Flux Pancreas ([2]; Mouse 14, dose 0.5 mg/kg): 1.5 p/s (×10^6); Organ Mean Total Flux Spleen ([2]; Mouse 14, dose 0.5 mg/kg): 11.8 p/s (×10^6); EE % [3, 6]: 98%; EE (%) N/P:6 ([3]; Formulation F1, N/P 6): 99%; EE (%) N/P:6 ([3]; Formulation F2, N/P 6): 97%; EE (%) N/P:6 ([3]; Formulation F3, N/P 6): 98%; EE (%) N/P:6 ([3]; Formulation F4, N/P 6): 98%

Source: US20260234115A1, “LIPID COMPOUNDS, COMPOSITIONS, AND USES THEREOF” (Liberate Bio, Inc., priority 2023, published 2026)
